# Tests used:
# human subjects with CLL = test: Example 1: investigator assessed nodal response in CLL subjects; format: in vivo; settings: CLL subjects (n=29); 800 mg BID fasting
# Description: The sample size was 10-40/arm.
# [1] = test system: subjects with CLL, FL, lymphoplasmacytoid lymphoma/SLL/marginal zone lymphoma, MCL, or DLBCL; test: Example 2: phase 2 trial, safety analysis of all treated subjects
# Procedure: A phase 2, open-label, single-agent study was completed to evaluate the efficacy, safety, tolerability, and pharmacodynamics of entospletinib in subjects with relapsed or refractory hematologic malignancies.
# Treatment with entospletinib was at a dose of 800 mg twice a day over 28-day cycles under fasted conditions. Fasting was defined as no food or liquids other than water for 2 hours pre- and 1 hour post-dose.
# Secondary end points included tolerability, objective response rate (ORR), duration of response (DOR), time to response, and lymph node response rate. […] Exploratory end points included plasma drug concentrations and pharmacodynamic biomarkers.
# Subjects were allowed to enroll in the study if they had cytopenias due to CLL. Treatment-emergent cytopenias were defined as a cytopenia that worsened in the period from the first dose of study treatment to 30 days after the last dose of study treatment.
# CCL3 = test: Example 2: serum levels of BCR-induced chemokines; format: in vivo, human; settings: days 8 and 29 of treatment
# Description: (§1) A bone marrow biopsy and aspirate were collected for confirmatory purposes for all subjects who achieved a complete response (CR) or to confirm suspected PD based solely upon declines in the platelet count and/or hemoglobin. Pharmacodynamic assessments, including serum cytokines and protein phosphorylation in circulating CLL cells, occurred before starting therapy and at designated time points thereafter.
# CCL4 = test: Example 2: serum levels of BCR-induced chemokines; format: in vivo, human; settings: days 8 and 29 of treatment
# Description: as §1
# CCL22 = test: Example 2: serum chemokine/cytokine levels; format: in vivo, human; settings: days 8 and 29 of therapy
# Description: as §1
# [2] = test system: tumor necrosis factor alpha (TNF-α); test: Example 2: serum chemokine/cytokine levels; format: in vivo, human; settings: days 8 and 29 of therapy
# Description: as §1
compound,measurement,setting,value
"c1cn2cc(-c3ccc4cn[nH]c4c3)nc(Nc3ccc(N4CCOCC4)cc3)c2n1 [compound of formula I, 6-(1H-indazol-6-yl)-N-(4-morpholinophenyl)imidazo[1,2-a]pyrazin-8-amine]",overall nodal response rate,human subjects with CLL,69%
same,AE leading to study drug discontinuation: fatigue,[1]; N = 145,3 n
same,AE leading to study drug discontinuation: headache,[1]; N = 145,3 n
same,AE leading to study drug discontinuation: increased ALT,[1]; N = 145,3 n
same,"AEs resulting in discontinuation, % of all treated subjects",[1]; N = 145,14.5%
same,"AEs resulting in dose reduction, % of all treated subjects",[1]; N = 145,7.6%
same,"Constipation, Any grade, %",[1]; N = 145,(24.1) %
same,"Constipation, At least grade 3, %",[1]; N = 145,(1.4) %
same,"Cough, Any grade, %",[1]; N = 145,(19.3) %
same,"Cough, At least grade 3, %",[1]; N = 145,(0.7) %
same,"Decreased appetite, Any grade, %",[1]; N = 145,(24.1) %
same,"Decreased appetite, At least grade 3, %",[1]; N = 145,(0.7) %
same,"Diarrhea, Any grade, %",[1]; N = 145,(34.5) %
same,"Diarrhea, At least grade 3, %",[1]; N = 145,(0.7) %
same,"Dizziness, Any grade, %",[1]; N = 145,(20.7) %
same,"Dizziness, At least grade 3, %",[1]; N = 145,(0.7) %
same,"Fatigue, Any grade, %",[1]; N = 145,(51.7) %
same,"Fatigue, At least grade 3, %",[1]; N = 145,(6.9) %
same,"Grade 3 fatigue, %",[1]; N = 145,6.9%
same,"Grade 3 fatigue, subjects",[1]; N = 145,10 subjects
same,"Headache, Any grade, %",[1]; N = 145,(22.8) %
same,"Headache, At least grade 3, %",[1]; N = 145,(0.7) %
same,"Insomnia, Any grade, %",[1]; N = 145,(15.9) %
same,"Laboratory abnormality: Anemia, Any grade, %",[1]; N = 145,(37.2) %
same,"Laboratory abnormality: Increased ALT, Any grade, %",[1]; N = 145,(37.2) %
same,"Laboratory abnormality: Increased ALT, At least grade 3, %",[1]; N = 145,(13.8) %
same,"Laboratory abnormality: Increased AST, Any grade, %",[1]; N = 145,(33.8) %
same,"Laboratory abnormality: Increased AST, At least grade 3, %",[1]; N = 145,(12.4) %
same,"Laboratory abnormality: Neutropenia, Any grade, %",[1]; N = 145,(32.4) %
same,"Laboratory abnormality: Thrombocytopenia, Any grade, %",[1]; N = 145,(6.9) %
same,"Laboratory abnormality: Thrombocytopenia, At least grade 3, %",[1]; N = 145,(2.8) %
same,"Laboratory abnormality: Total bilirubin, Any grade, %",[1]; N = 145,(31.0) %
same,"Laboratory abnormality: Total bilirubin, At least grade 3, %",[1]; N = 145,(4.1) %
same,"Nausea, Any grade, %",[1]; N = 145,(40) %
same,"Nausea, At least grade 3, %",[1]; N = 145,(3.4) %
same,"Pyrexia, Any grade, %",[1]; N = 145,(21.4) %
same,"Pyrexia, At least grade 3, %",[1]; N = 145,(2.1) %
same,"Serious AE: Anemia, %",[1]; N = 145,(2.1) %
same,"Serious AE: Back pain, %",[1]; N = 145,(2.1) %
same,"Serious AE: Chest pain, %",[1]; N = 145,(2.1) %
same,"Serious AE: Dyspnea, %",[1]; N = 145,(3.4) %
same,"Serious AE: Febrile neutropenia, %",[1]; N = 145,(2.8) %
same,"Serious AE: Pneumonia, %",[1]; N = 145,(3.4) %
same,"Serious AE: Pyrexia, %",[1]; N = 145,(2.8) %
same,"grade 2 rash, %",[1]; N = 145,1.4%
same,"grade 3 dyspnea, %",[1]; N = 145,6.2%
same,"grade 3 nausea, %",[1]; N = 145,3.4%
same,"grade 3 rash, %",[1]; N = 145,1.4%
same,"grade 4 rash, %",[1]; N = 145,0.7%
same,subjects with a treatment-emergent AE that led to study drug discontinuation,[1]; N = 145,15.2%
same,"subjects with a treatment-emergent, serious AE",[1]; N = 145,31.0%
same,"subjects who died while on study, %","[1]; N=145, none attributed by the investigator to entospletinib",12.4%
same,subjects with at least one AE,[1]; all treated subjects N=145,94.5%
same,"time to grade 3 or 4 ALT/AST elevation, first quartile","[1]; human, in vivo, 800 mg",4.1 weeks
same,"time to grade 3 or 4 ALT/AST elevation, third quartile","[1]; human, in vivo, 800 mg",6.1 weeks
same,"subjects with ALT/AST elevation who resumed after interruption without further event, %",[1]; of 21 subjects,57.1%
same,grade 3 or 4 ALT/AST elevations that occurred by 6 weeks,[1]; of 21 subjects with elevations,10
same,"Reversible grade 3 or 4 ALT/AST elevations, %",[1]; of 145 subjects,14.5%
same,"Reversible grade 3 or 4 ALT/AST elevations, subjects",[1]; of 145 subjects,21 subjects
same,deaths on study due to disease progression,[1]; of eighteen deaths,13
same,tolerability,[1]; phase 2 study,well tolerated
same,serum levels of BCR-induced CCL3,CCL3,Significant reductions
same,serum levels of BCR-induced CCL4,CCL4,Significant reductions
same,Serum levels of CCL22,CCL22,inhibited
same,Serum levels of tumor necrosis factor alpha (TNF-α),[2],inhibited

# Source: patent US9974792B2, “Methods for treating cancers” (Gilead Sciences, Inc., priority 2013, dated 2018)
